Key:
"D" DNA fragment = assay: DNA footprinting, random "D" DNA fragment; assay type: binding; conditions: random "D" DNA sequence
Protocol: (§1) The DNA sequence selectivity profile of the molecules was investigated using a modification of the previously established DNA footprinting assay. Following an overnight incubation of the ligand-DNA complexes, the mixture was mixed with strand separation buffer containing 10 mM EDTA, 10 mM NaOH, 0.1% bromophenol blue, 80% formamide and incubated at 100° C. for 3 min. The mixture was then immediately cooled on ice and run on an 8% denaturing gel.
(§2) The preparation of the DS3 DNA fragment (FIG. 5) and the “D” DNA fragment (FIG. 6) has been previously described. Briefly, the sequence which had been cloned into the BamHI site of pUC18 was obtained by cutting with HindIII and EcoRI. Radiolabelled DNA fragments were prepared by filling in the 3′-end of the HindIII site with [α-^32P]dATP using Klenow DNA polymerase (exo-).
The radiolabelled DNA fragment was separated from the remainder of the plasmid DNA on a 6% non-denaturing polyacrylamide gel. […]
(§3) Footprinting reactions were performed as previously described using the DNA fragments DS3, which contains tracts of AT/GC bases; and using the “D” DNA fragments which represents a random DNA sequence. […] After gel purification, the radiolabelled DNA was dissolved in 10 mM Tris-HCl pH 7.5 containing 0.1 mM EDTA, at a concentration of about 10 c.p.s per μL as determined on a hand held Geiger counter. […]

DS3 DNA fragment = assay: DNA footprinting, DS3 DNA fragment; assay type: binding
Protocol: as §1, §2
The radiolabelled DNA fragment was separated from the remainder of the plasmid DNA on a 6% non-denaturing polyacrylamide gel. The gel (20 cm long, 0.3 mm thick) was run at 400 V in 1×TBE running buffer for about 1-2 h, until the bromophenol blue had run most of the way down the gel. The glass plates were separated and the position of the labelled DNA fragment was established by short (1 min) exposure to an X-ray film. The relevant band was then cut from the gel and the radiolabelled DNA eluted by adding 300 μL 10 mM Tris-HCl, pH 7.5 containing 0.1 mM EDTA and gently agitating overnight at room temperature. The eluted DNA was finally precipitated with ethanol and re-suspended in a suitable volume of 10 mM Tris-HCl, pH 7.5 containing 0.1 mM EDTA buffer so as to give at least 10 counts per second/μL on a hand-held Geiger counter. […]
as §3

LIM1215 = assay: In vitro cell-killing, MTT assay, LIM1215; assay type: cell-based; conditions: LIM1215, 72 h, read-out: In vitro cell-killing (IC50), Cytotoxicity (72 hours)
Protocol: (§4) Tumor cell lines were maintained in RPMI1640 medium supplemented with 10% heat-inactivated fetal bovine serum, 2 mM L-glutamine and 1 mM sodium pyruvate. 1800 cells per well were seeded in a volume of 180 μl in a 96-well flat bottom polystyrene plate. The cells were allowed to adhere overnight at 37° C. in a CO2 incubator. Ligands were initially formulated in DMSO, and stocks stored at −80° C. They were then further formulated at lox concentration in RPMI1640 medium. 20 ul of diluted samples were added into each treatment well. On each plate, blank wells with no cells, and untreated wells containing cells, were included. Plates were then cultured at 37° C. in a CO2 incubator for 72 hrs. Cytotoxicity was evaluated using a tetrazolium salt-based assay, the MTT assay. After 72 hours, the supernatant was removed from each well and 200 μl of a sterile filtered 500 μg/ml MTT solution in water added to each well. […] The plate was then read on a plate reader at 540 nm, and percentage cell survival calculated as follows: ((mean absorbance treated wells at concentration x−mean absorbance blank wells)+(mean absorbance untreated wells at concentration x−mean absorbance blank wells))×100. Data were plotted as concentration in nM vs. % cell survival in Microsoft Excel, and IC50 values (concentration where cell survival is reduced by a half) were determined from the graph.

A431 (Skin) = assay: In vitro cytotoxicity, MTT assay, A431; assay type: cell-based; conditions: Homo sapiens, A-431, 72 h, read-out: Cytotoxicity
Protocol: The in vitro cytotoxicity of a selection of compounds were evaluated in a panel of cell lines using the standard MTT assay for a 72 hour incubation period (Table 2). Free payloads produced cytotoxicities in the nanomolar range.
Tumor cell lines were maintained in RPMI1640 medium supplemented with 10% heat-inactivated fetal bovine serum, 2 mM L-glutamine and 1 mM sodium pyruvate. 1800 cells per well were seeded in a volume of 180 μl in a 96-well flat bottom polystyrene plate. The cells were allowed to adhere overnight at 37° C. in a CO2 incubator. Ligands were initially formulated in DMSO, and stocks stored at −80° C. They were then further formulated at lox concentration in RPMI1640 medium. 20 ul of diluted samples were added into each treatment well. On each plate, blank wells with no cells, and untreated wells containing cells, were included. Plates were then cultured at 37° C. in a CO2 incubator for 72 hrs. Cytotoxicity was evaluated using a tetrazolium salt-based assay, the MTT assay. After 72 hours, the supernatant was removed from each well and 200 μl of a sterile filtered 500 μg/ml MTT solution in water added to each well. The plates were then incubated at 37° C. in a CO2 incubator for 4 hrs. The supernatant was then removed and the formazan crystals formed solubilized by adding 150 μl of DMSO to each well. The plate was then read on a plate reader at 540 nm, and percentage cell survival calculated as follows: ((mean absorbance treated wells at concentration x−mean absorbance blank wells)+(mean absorbance untreated wells at concentration x−mean absorbance blank wells))×100. Data were plotted as concentration in nM vs. % cell survival in Microsoft Excel, and IC50 values (concentration where cell survival is reduced by a half) were determined from the graph.

[1] = tested on: transcription factors in HeLa cells; assay: Transcription factor plate array assay; assay type: cell-based; conditions: 100 nM, 6 hours
Protocol: The consensus sequences of each of these transcription factors corresponds to the DNA footprinting pattern observed for 16.
The transcription factor plate array assay kit was obtained from Signosis Inc (USA). Briefly, 2×10^6 HeLa cells were treated with 100 nM compound 16 and incubated for 6 hours before extracting the nuclear protein and carrying out the TF plate array assay. The assay was carried out following the manufacturer's protocol. In the case of each transcription factor, the RLU value obtained for the cells treated with 16 was deducted from the respective values obtained for the untreated cells to obtain the differences in TF activation/inhibition.

SW620 = assay: In vitro cell-killing, MTT assay, SW620; assay type: cell-based; conditions: Homo sapiens, SW-620, 72 h, read-out: In vitro cell-killing (IC50), Cytotoxicity (72 hours)
Protocol: as §4

COc1cc2c(cc1OCCCC(=O)Nc1cc(C(=O)Nc3ccc(-c4cc(C(=O)Nc5ccc(N)cc5)n(C)c4)cc3)n(C)c1)NC[C@@H]1CCCCN1C2=O [Compound 16, (S)—N-(4-Aminophenyl)-4-(4-(4-(4-((2-methoxy-12-oxo-5,6,6a,7,8,9,10,12-octahydrobenzo[e]pyrido[1,2-a][1,4]diazepin-3-yl)oxy)butanamido)-1-methyl-1H-pyrrole-2-carboxamido)phenyl)-1-methyl-1H-pyrrole-2-carboxamide]
preferred binding sites (footprint) ("D" DNA fragment): only three preferred sites were observed during this experiment, and all are primarily AT-rich | DNA binding pattern (footprint) (DS3 DNA fragment; DS3 DNA sequence): predominantly target AT rich regions | DNA-binding site sequence (X any base, W A or T) (DS3 DNA fragment; from DNA footprinting, fragment not stated): XXXXWWW | IC50 (LIM1215): 72 nM | IC50 (A431 (Skin)): 61.5 nM | major transcription factors down-regulated [1]: GR/PR, CDP, ATG2 and Oct-4 | IC50 (SW620): 79 nM
